Test results as given in patent US12134617B1, “Pyrimido[1′6′:1,5]pyrazolo[4,3-c][1,7]naphthyridines as CK2 inhibitors” (KING FAISAL UNIVERSITY, priority 2024, dated 2024).

How the values were obtained:
[1] = test system: PC3 (prostate); experiment: In vitro cytotoxic activity (MTT) assay, PC3; assay type: cell-based; details: Homo sapiens, PC-3; PC3 cells, exposed for 96 hours, 50% inhibition of cell proliferation; read-out: Cytotoxicity activity IC50, PC3 (prostate)
Method: (§1) In Vitro Cytotoxic Activity Assay
(§2) Compounds 1-16 were screened for their in vitro cytotoxic activity utilizing a 3-(4,5-dimethyl-thiazol-2-yl)-2,5-diphenyltetrazolium bromide (MTT) assay against selected cancer human cell lines consisting of PC3 (prostate), HCT116 (colon), A375 (melanoma), H1299 (lung), MIAPaCa-2 (pancreas), HL60 (leukemia), MCF7 (breast), MDA-MB-231 (breast) (T. Mosmann, J. Immunol. Meth., 1983, 65, 55-63). The cells were cultured at 37° C. in RMPI1640 medium supplemented with 10% fetal bovine serum, 50 IU/mL penicillin, and 50 μg/mL streptomycin in a 5% CO2 incubator. All cells were sub-cultured 3 times/week by trypsinisation. Viable cells were seeded and allowed to adhere for 12 hours before a test drug was added in 96-well plates at an initial density of 1.0×10^5 cells/mL. Tumor cell lines were separately exposed to various concentrations of the tested compounds followed by incubation at a temperature of 37° C. during 96 hours inside a medium of fresh RMPI 1640. Cells were subsequently incubated at 37° C. using MTT at 0.5 mg/mL during 4 hours. After removal of supernatant, formazan crystals were dissolved in isopropanol and the optical density was measured at 570 nm. CX-4945 was used as a positive control.

[2] = test system: HCT116 (colon); experiment: In vitro cytotoxic activity (MTT) assay, HCT116; assay type: cell-based; details: Homo sapiens, HCT-116; HCT116 cells, exposed for 96 hours, 50% inhibition of cell proliferation; read-out: Cytotoxicity activity IC50, HCT116 (colon)
Method: as §1, §2

[3] = test system: A375 (melanoma); experiment: In vitro cytotoxic activity (MTT) assay, A375; assay type: cell-based; details: Homo sapiens, A-375; A375 cells, exposed for 96 hours, 50% inhibition of cell proliferation; read-out: Cytotoxicity activity IC50, A375 (melanoma)
Method: as §1, §2

[4] = test system: H1299 (lung); experiment: In vitro cytotoxic activity (MTT) assay, H1299; assay type: cell-based; details: Homo sapiens, NCI-H1299; H1299 cells, exposed for 96 hours, 50% inhibition of cell proliferation; read-out: Cytotoxicity activity IC50, H1299 (lung)
Method: as §1, §2

[5] = test system: MIAPaCa-2 (pancreas); experiment: In vitro cytotoxic activity (MTT) assay, MIAPaCa-2; assay type: cell-based; details: Homo sapiens, MIA PaCa-2; MIAPaCa-2 cells, exposed for 96 hours, 50% inhibition of cell proliferation; read-out: Cytotoxicity activity IC50, MIAPaCa-2 (pancreas)
Method: as §1, §2

[6] = test system: HL60 (leukemia); experiment: In vitro cytotoxic activity (MTT) assay, HL60; assay type: cell-based; details: Homo sapiens, HL-60; HL60 cells, exposed for 96 hours, 50% inhibition of cell proliferation; read-out: Cytotoxicity activity IC50, HL60 (leukemia)
Method: as §1, §2

[7] = test system: MCF7 (breast); experiment: In vitro cytotoxic activity (MTT) assay, MCF7; assay type: cell-based; details: Homo sapiens; MCF7 cells, exposed for 96 hours, 50% inhibition of cell proliferation; read-out: Cytotoxicity activity IC50, MCF7 (breast)
Method: as §1, §2

[8] = test system: MDA-MB-231 (breast); experiment: In vitro cytotoxic activity (MTT) assay, MDA-MB-231; assay type: cell-based; details: Homo sapiens; MDA-MB-231 cells, exposed for 96 hours, 50% inhibition of cell proliferation; read-out: Cytotoxicity activity IC50, MDA-MB-231 (breast)
Method: as §1, §2

[9] = biological target: T1, recombinant human CK2 (RRββ-holoenzyme) (Homo sapiens, UniProt P68400); experiment: CK2 Kinase Assay (33P-ATP, filter plate); assay type: biochemical; details: recombinant human CK2, final ATP concentration 15 μM, 10 min at 30° C.; read-out: protein kinase CK2 IC50
T1 construct: purchased Millipore
T1 sequence (P68400 whole entry): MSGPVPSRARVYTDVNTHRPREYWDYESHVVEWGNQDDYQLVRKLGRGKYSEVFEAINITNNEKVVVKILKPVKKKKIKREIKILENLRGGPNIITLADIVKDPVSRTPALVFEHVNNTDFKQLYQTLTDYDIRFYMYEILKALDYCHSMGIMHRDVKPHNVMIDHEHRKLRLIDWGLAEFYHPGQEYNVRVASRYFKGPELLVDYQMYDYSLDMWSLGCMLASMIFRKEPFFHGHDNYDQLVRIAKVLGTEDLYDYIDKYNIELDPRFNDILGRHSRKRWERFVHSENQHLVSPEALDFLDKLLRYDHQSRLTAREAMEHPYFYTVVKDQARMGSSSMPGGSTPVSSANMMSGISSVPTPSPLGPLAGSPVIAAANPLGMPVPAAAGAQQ
T1 sequence (P67870 whole entry partner): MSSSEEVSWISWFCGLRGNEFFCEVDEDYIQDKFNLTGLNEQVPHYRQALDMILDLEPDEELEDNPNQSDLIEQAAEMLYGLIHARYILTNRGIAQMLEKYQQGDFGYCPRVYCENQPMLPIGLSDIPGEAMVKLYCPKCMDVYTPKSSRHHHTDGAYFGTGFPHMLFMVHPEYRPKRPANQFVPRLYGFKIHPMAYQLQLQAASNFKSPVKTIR
Method: Evaluation of Inhibitory Activity on Protein Kinase CK2
CK2 Kinase Assay was conducted using the protocol as described in Pierre F. et al; J. Med. Chem. 2011, 54, 635-654. The tested compounds in aqueous solution were added at a volume of 10 μL to a reaction mixture comprising 10 μL of assay dilution buffer (ADB; 20 mM MOPS, pH 7.2, 25 mM β-glycerol phosphate, 5 mM EGTA, 1 mM sodium orthovanadate, and 1 mM dithiothreitol), 10 μL of substrate peptide (RRRDDDSDDD, dissolved in ADB at a concentration of 1 mM), 10 μL of recombinant human CK2 (RRββ-holoenzyme, 25 ng dissolved in ADB; Millipore). Reactions were initiated by the addition of 10 μL of ATP solution (90% 75 mMMgCl2, 75 μM ATP (final ATP concentration: 15 μM) dissolved in ADB; 10% [γ-33P] ATP (stock 1mCi/100 μL; 3000 Ci/mmol (Perkin-Elmer) and maintained for 10 min at 30° C. The reactions were quenched with 100 μL of 0.75% phosphoric acid and then transferred to and filtered through a phosphor cellulose filter plate (Millipore). After washing each well five times with 0.75% phosphoric acid, the plate was dried under vacuum for 5 min and, following the addition of 15 μL of scintillation fluid to each well, the residual radioactivity was measured using a Wallac luminescence counter. The IC50 values were derived from eight concentrations of test inhibitors.

IC50 [9]: 47 nM
SMILES: Clc1cccc(Nc2nc3cnccc3c3nn4cnccc4c23)c1 [Compound 1, N-(3-chlorophenyl)pyrimido[1′,6′:1,5]pyrazolo[4,3-c][1,7]naphthyridin-6-amine]
IC50 [1]: 1700 nM
IC50 [2]: 1500 nM
IC50 [3]: 3.2 µM
IC50 [4]: 2600 nM
IC50 [5]: 1300 nM
IC50 [6]: 4.4 µM
IC50 [7]: 5.7 µM
IC50 [8]: 4.8 µM
